Common to all, as to assay type: in vivo, mouse (outbred Swiss Webster)
The subject of experiment [1] is aerobic bacteria in whole blood. The experiment is described as follows: Whole blood aerobic bacterial colony forming units. The following applies: for peripheral blood bacterial CFUs at 24 hours: 24 hours after CLP, nNIF 1 mg/kg or meropenem 25 mg/kg at 4 and 10 hours, serial dilution, LB-agar, 37°C 24 hours, N=5-8. As for the experimental part:
Peritoneal fluid cytokines were analyzed using a mouse Cytokine/Chemokine Panel I Multiplex Array (Millipore Sigma catalog# HCYTMAG60-PMX41) according to manufacturer’s instructions on a Luminex 200 instrument. […] Briefly, peritoneal fluid and blood samples were collected, serially diluted, plated on LB-agar dishes, and incubated at 37°C for 24 hours. The number of bacterial colonies was counted and expressed as CFU/mL.

Experiment [2] concerns peritoneal fluid and stool microbiomes. The experiment is described as follows: 16S rRNA gene sequencing of peritoneal fluid and stool microbiomes. The following applies: CLP-treated mice; for relative abundance of Enterobacteriaceae in stool and peritoneal fluid: ANCOM-BC, relative to vehicle; for Bray-Curtis distance of peritoneal fluid microbiome from stool microbiome: each group compared to vehicle. As for the experimental part:
Libraries were constructed for sequencing approximately 460 bp of the variable V3 and V4 regions of 16S rRNA using a two-step PCR process. Genomic DNA (5 to 20 ng) was PCR amplified for 14 cycles using the Quick-16S Primer Set V3-V4 (Zymo Research cat# D6405-2-400) with NEBNext Ultra II Q5 Master Mix (NEB cat# M0544). Dual unique indexing adapters (Illumina cat#20027213) were added to the amplicons during a second PCR reaction (6 cycles). 16S libraries were qualified on an Agilent Technologies 4150 TapeStation using a D1000 ScreenTape assay (cat# 5067-5582 and 5067-5583, respectively) and the molarity of adapter-modified molecules was defined by quantitative PCR using the Kapa Biosystems Kapa Library Quant Kit (cat#KK4824). Libraries were normalized and pooled (12 pM) and chemically denatured along with 15% molar representation of PhiX library in preparation for sequencing on an Illumina MiSeq instrument in paired-end 300 cycle mode. Raw 16S sequences were read in and processed with […] 2021.11 plugins ([33]). In brief, demultiplexed and quality-filtered sequences were first trimmed of primer and linker sequences with the Cutadapt plugin, then denoised to ASVs using DADA2 ([34], [35]). […] Diversity metrics, distances, and statistical significance of beta diversity groupings by permanova were further calculated within […]2 artefacts were then read into R and genera tested for differential abundances using ANCOM-BC implemented in the microbiomeMarker package ([37], [38]). Scripts used for processing and analyses have been deposited along with processed QIIME2 artifact files at: https://github.com/wzacs1/Araujo_nNIF. Raw sequences have been deposited in the NCBI SRA under BioProject accession PRJNA884333.

For experiment [3], the system named is aerobic bacteria in peritoneal fluid. The experiment is described as follows: Peritoneal fluid aerobic bacterial colony forming units. The following applies: 24 hours after CLP; nNIF 1 mg/kg or meropenem 25 mg/kg at 4 and 10 hours; serial dilution, LB-agar, 37°C 24 hours; N=5-8. As for the experimental part: Peritoneal fluid cytokines were analyzed using a mouse Cytokine/Chemokine Panel I Multiplex Array (Millipore Sigma catalog# HCYTMAG60-PMX41) according to manufacturer’s instructions on a Luminex 200 instrument. Bacterial counts in whole blood and peritoneal lavage were determined 24 hours after CLP. Briefly, peritoneal fluid and blood samples were collected, serially diluted, plated on LB-agar dishes, and incubated at 37°C for 24 hours. The number of bacterial colonies was counted and expressed as CFU/mL.

Experiment [4] deals with neutrophil extracellular traps (NETs), peritoneal fluid. The experiment is described as follows: Peritoneal fluid NET formation (confocal live cell imaging, MPO-DNA complex ELISA). The following applies: 24 hours after CLP; nNIF 1 mg/kg IV or meropenem 25 mg/kg IP at 4 and 10 hours after CLP; compared to vehicle, scrambled peptide and meropenem groups; N=5-9. As for the experimental part: We evaluated mouse NET formation via live cell imaging with confocal microscopy as previously described ([12]). Sham mice and CLP animals from all experimental groups were euthanized by CO2 inhalation and the peritoneal fluid was collected. An aliquot of 100 μL of the peritoneal fluid was placed on glass coverslips coated with poly-L-lysine for 1 hour at 37°C in 5% CO2/95% air. NET formation was assessed using cell-permeable (SYTO Green, Molecular Probes) and cell-impermeable (SYTOX Orange, Molecular Probes) DNA fluorescent stains. Using a FV3000 1X81 confocal microscope and FluoView software (Olympus) with 20X and 60X objectives, we obtained z-series images over a range of 20 μm with a 1 μm step size for each field. We processed these images using FluoView (Olympus), Photoshop (Adobe), and ImageJ (NIH) software. An in-house ELISA was used to quantify MPO-DNA complexes in plasma and peritoneal fluid from sham and CLP mice 24 hours after the surgical procedure ([24], [27]). Briefly, after overnight coating with anti-MPO capture antibody in calcium carbonate coating buffer (2 µg/ml; 0400-0002, Bio-Rad) at 4°C, a 96-well plate was blocked with 2.5% bovine serum albumin in PBS for 2 hours at room temperature. The plate was subsequently washed, before incubating for 90 minutes at room temperature with 10% peritoneal fluid in blocking buffer. […]

For experiment [5], the system named is neutrophil extracellular traps (NETs), plasma. The experiment is described as follows: Plasma NET formation (MPO-DNA complex ELISA). The following applies: 24 hours after CLP; for plasma MPO-DNA complexes compared to other CLP treatment groups: nNIF 1 mg/kg IV or meropenem 25 mg/kg IP at 4 and 10 hours after CLP, N=3-5 per group, two experiments. As for the experimental part:
An in-house ELISA was used to quantify MPO-DNA complexes in plasma and peritoneal fluid from sham and CLP mice 24 hours after the surgical procedure ([24], [27]). Briefly, after overnight coating with anti-MPO capture antibody in calcium carbonate coating buffer (2 µg/ml; 0400-0002, Bio-Rad) at 4°C, a 96-well plate was blocked with 2.5% bovine serum albumin in PBS for 2 hours at room temperature. The plate was subsequently washed, before incubating for 90 minutes at room temperature with 10% peritoneal fluid in blocking buffer. The plate was washed five times, and then incubated for 90 minutes at room temperature with anti-DNA detection antibody (1:20; Cell Death detection ELISA, 11544675001, Sigma). After five washes, the plate was developed with TMB substrate solution (Sigma).

For a further experiment, the system named is neutrophil CD11b. The experiment is described as follows: Peritoneal fluid neutrophil CD11b expression (flow cytometry). Particulars: 24 hours after CLP; nNIF 1 mg/kg or meropenem 25 mg/kg at 4 and 10 hours; compared to scrambled peptide control-treated CLP mice. As for the experimental part: Twenty-four hours after CLP or sham surgery, total white blood cell and differential neutrophil counts were determined both in whole blood samples collected from orbital vein using heparinized capillaries tubes and peritoneal fluid by washing with 3 mL of PBS, respectively. Then, samples were incubated with CD45 APC-Cy7 (Biolegend), CD11b PE-Cy7 (EBioscience), Ly6G BV510 (Biolegend), and CD16/CD32 (Fc-block, EBioscience) for 30 minutes at 37 °C. Thirty minutes later, cells were washed, fixed, and ran on a Beckman Coulter Cytoflex located in the University of Utah Flow Cytometry Core.

Where no end group is shown, it is not given here.

Consider `C[C@@H](O)[C@H]1C(=O)N2C(C(=O)O)=C(S[C@@H]3CN[C@H](C(=O)N(C)C)C3)[C@H](C)[C@H]12` [meropenem, reference compound], for which, in experiment [1], the “peripheral blood bacterial CFUs at 24 hours” value is reported as “statistically significant decrease”. Further, in experiment [2], the “relative abundance of Enterobacteriaceae in stool and peritoneal fluid” value was “decreased in stool and peritoneal fluid”; the “Bray-Curtis distance of peritoneal fluid microbiome from stool microbiome” value was “more similar stool and peritoneal microbiomes”. For the same compound, the “peritoneal fluid bacterial CFUs at 24 hours” value in experiment [3] is listed as “statistically significant decrease”. Also, in experiment [4], the “peritoneal fluid NET formation (MPO-DNA complexes, confocal microscopy)” value was “equivalent between the vehicle and meropenem arms”. In addition, in experiment [5], the “plasma MPO-DNA complexes compared to other CLP treatment groups” value was “equivalent between the vehicle and meropenem arms”. In addition, the “plasma MPO-DNA complexes compared to the sham surgery group” value in experiment [5] (nNIF-SCR 1 mg/kg IV or meropenem 25 mg/kg IP at 4 and 10 hours after CLP) is “significantly increased MPO-DNA complexes”. Moreover, the “neutrophil CD11b expression in peritoneal fluid” value in the experiment with neutrophil CD11b is listed as “no decrease”.
On to “KFNKPFVFLMIEQNTKSPLFMGKVVNPTQ-OH [nNIF, neonatal NET-Inhibitory Factor]”, for which the “peripheral blood bacterial CFUs at 24 hours” value in experiment [1] is recorded as “higher CFUs”. In addition, the “whole blood bacterial CFUs at 96 hours” value in experiment [1] (96 hours after CLP, nNIF 1 mg/kg, elevated at 24 hours, meropenem comparator 8 mg/kg, N=3-4) is listed as “returned to meropenem alone treatment levels”. Moreover, in experiment [2] (16S rRNA V3/V4 sequencing, N=5-7 per group), the “peritoneal fluid and stool microbiomes (beta diversity, Bray-Curtis, PERMANOVA)” value was “did not alter the peritoneal fluid and stool microbiomes”. In experiment [2], the “relative abundance of Enterobacteriaceae in stool and peritoneal fluid” value was “did not affect their abundances”; the “Bray-Curtis distance of peritoneal fluid microbiome from stool microbiome” value is on record as “as dissimilar from their stool counterparts as were vehicle controls”. The “peritoneal fluid bacterial CFUs at 24 hours” value in experiment [3] is “higher CFUs”. The “peritoneal fluid NET formation (MPO-DNA complexes, confocal microscopy)” value in experiment [4] is “reduced NET formation qualitatively and quantitatively”. Moreover, the “plasma MPO-DNA complexes compared to other CLP treatment groups” value in experiment [5] is given as “significant reduction in MPO-DNA complexes”. Further, the “neutrophil CD11b expression in peritoneal fluid” value in the experiment on neutrophil CD11b is given as “significantly decreased neutrophil CD11b expression”.

Values taken from PMC9888311, “Neonatal NET-Inhibitory Factor improves survival in the cecal ligation and puncture model of polymicrobial sepsis by inhibiting neutrophil extracellular traps” (Frontiers in Immunology, 2023).
